Three compounds from ChEMBL document CHEMBL1144090, “Antinociceptive activity of niga-ichigoside F1 from Rubus imperialis” (1999) can be followed below.

The source made the active and inactive calls. The rule behind the calls is not given here.

Assay [1] has as its system Mus musculus. As to the kind of experiment: Antinociceptive activity in Swiss mouse assessed as reduction of formalin-induced inflammatory pain at 1 to 10 mg/kg, ip administered 60 mins before formalin challenge measured during 15 to 30 mins relative to control. Type of assay: functional. The note with it: route intraperitoneal.
The test system of assay [2] is Mus musculus. As to the kind of experiment: Antinociceptive activity in ip dosed Swiss mouse assessed as reduction of formalin-induced inflammatory pain administered 60 mins before formalin challenge measured during 15 to 30 mins. Type of assay: functional. The settings on record: read-out: ID50 (the source's name).
In assay [3] the test system is Mus musculus. The assay is described as follows: Antinociceptive activity in ip dosed Swiss mouse assessed as reduction of acetic acid-induced abdominal constructions administered 30 mins before acetic acid challenge measured for 20 mins. The settings on record: Abdomen, read-out: ID50 (the source's name). Type of assay: functional.
Assay [4] relates to Mus musculus. As to the kind of experiment: Antinociceptive activity in ip dosed Swiss mouse assessed as reduction of formalin-induced neurogenic pain administered 60 mins before formalin challenge measured during 0 to 5 mins. Format: functional.
Assay [5] concerns Mus musculus. As to the kind of experiment: Antinociceptive activity in Swiss mouse assessed as reduction of formalin-induced neurogenic pain at 1 to 10 mg/kg, ip administered 60 mins before formalin challenge measured during 0 to 5 mins relative to control. The note with it: route intraperitoneal. Type of assay: functional.
Assay [6] has as its system Mus musculus. The assay is described as follows: Antinociceptive activity in Swiss mouse assessed as reduction of acetic acid-induced abdominal constructions at 1 to 10 mg/kg, ip administered 30 mins before acetic acid challenge measured after 20 mins relative to control. The settings on record: dose mg/kg 1-10; route intraperitoneal. Type of assay: functional, Abdomen.

Consider `C[C@@H]1CC[C@]2(C(=O)O[C@@H]3O[C@H](CO)[C@@H](O)[C@H](O)[C@H]3O)CC[C@]3(C)C(=CC[C@@H]4[C@@]5(C)C[C@@H](O)[C@H](O)[C@@](C)(CO)[C@@H]5CC[C@]43C)[C@@H]2[C@]1(C)O` [NIGAICHIGOSIDE F1], for which the “inhibition (INH)” value in assay [1] stood at 94%; in assay [5], 70.4%; in assay [6], 67.6%. Further, the figures for the ED50 in assay [2], in assay [3] and in assay [4] (read-out: ID50 (the source's name)) were 4.1 µmol/kg, 4.6 µmol/kg and 3.9 µmol/kg, respectively.
On to `CC(=O)Oc1ccccc1C(=O)O` [ASPIRIN], for which the figures for the “inhibition (INH)” value in assay [1] and in assay [6] were 88% and 83%, respectively. The ED50 in assay [2] was 123 µmol/kg; in assay [3], 133 µmol/kg. Also, the result in assay [4] was inactive.
`CC(=O)Nc1ccc(O)cc1` [ACETAMINOPHEN]: the “inhibition (INH)” value is listed as 85% in assay [1] and 88% in assay [6]. For the same compound, the ED50 turned out to be 120 µmol/kg in assay [2] and 125 µmol/kg in assay [3]. Moreover, the result in assay [4] was inactive.
